≈ marks a conversion by molar mass, not a printed value. One block for each compound: values may come before it. Numbered stars: 1 amine (or outer) side, 2 acyl side, 3 side chain; on linkers, the order of the positions; unused ones are H or OH. Square brackets hold non-standard residues; d marks the D form. Peptide text beside a SMILES is read from it. ξ: configuration not given here. X1 = N=C1NCC(C(O)C(N[*:1])C(=O)[*:2])N1C1OC(CO)C(O)C(O)C1O; ξEnduracididine(βξ-OH,4'ξ) = N=C1NCC(C(O)C(N)C(=O)O)N1; Tyr(3-NO2) = N[CH](Cc1ccc(O)c([N+](=O)[O-])c1)C(=O)O; ξPhe(βξ-Me) = CC(c1ccccc1)C(N)C(=O)O
Legend:
Assay in all cases: in vitro antibacterial evaluation, MIC by broth dilution
Type in all cases: cell-based
Escherichia coli = details: 18 hours at 35° C.
How it was run: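 Broth dilution in Muller-Hinton II medium per NCCLS standard M7-A2, with an inoculum of 5×10^5 CFU/mL and antibiotic tested over 64-0.06 μg/mL. MIC was taken as the lowest concentration inhibiting visible growth.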

Staphylococcus sp. = system: Staphylococcus sp.
Experimental: (§1) Methods for in vitro Antibacterial Evaluation (Table 1)
(§2) The minimum inhibitory concentration (MIC), the lowest concentration of the antibiotic which inhibits growth of the test organism, is determined by the broth dilution method using Muller-Hinton II […] (Baltimore Biological Laboratories) following the recommendations of the National Committee for Clinical Laboratory Standards [Methods for dilution antimicrobial susceptibility tests for bacteria that grow aerobically, approved standard M7-A2, National Committee for Clinical Laboratory Standards, Villanova, Pa.].
(§3) An inoculum level of 5×10^5 CFU/mL, and a range of antibiotic concentrations (64-0.06 μg/mL) is used. […] The test organisms include a spectrum of Gram-positive bacteria comprised of Staphylococcus sp., Streptococcus sp. and Enterococcus sp. These organisms include recent clinical isolates that are resistant to methicillin, penicillin and/or vancomycin.

Streptococcus sp. = system: Streptococcus sp.
Experimental: as §1, §2, §3

Enterococcus sp. = system: Enterococcus sp.
Experimental: as §1, §2, §3

[1] = broth dilution, 18 hours at 35° C.

- MIC Escherichia coli (ATCC 25922) (Escherichia coli): >128 mg/L
- MIC Escherichia coli (GC 4559) (Escherichia coli): >128 mg/L
- MIC Escherichia coli (GC 4560) (Escherichia coli): 4 mg/L (≈ 2.29 µM)
- MIC Staphylococcus aureus (ATCC 29213) (Staphylococcus sp.; strain ATCC 29213; broth dilution, 18 hours at 35° C.): >128 mg/L
- MIC Staphylococcus aureus (GC 1131) (Staphylococcus sp.; strain GC 1131; broth dilution, 18 hours at 35° C.): >128 mg/L
- MIC Staphylococcus aureus (GC 3051) (Staphylococcus sp.; strain GC 3051; broth dilution, 18 hours at 35° C.): >128 mg/L
- MIC Staphylococcus aureus (GC 3053) (Staphylococcus sp.; strain GC 3053; broth dilution, 18 hours at 35° C.): >128 mg/L
- MIC Staphylococcus aureus (GC 4541) (Staphylococcus sp.; strain GC 4541; broth dilution, 18 hours at 35° C.): >128 mg/L
- MIC Staphylococcus aureus (GC 4542) (Staphylococcus sp.; strain GC 4542; broth dilution, 18 hours at 35° C.): >128 mg/L
- MIC Staphylococcus aureus-SMITH (GC 4543) (Staphylococcus sp.; strain GC 4543; broth dilution, 18 hours at 35° C.): >128 mg/L
- MIC Staphylococcus aureus (GC 4544) (Staphylococcus sp.; strain GC 4544; broth dilution, 18 hours at 35° C.): >128 mg/L
- MIC Staphylococcus aureus (GC 4545) (Staphylococcus sp.; strain GC 4545; broth dilution, 18 hours at 35° C.): >128 mg/L
- MIC Coagulase Negative Staphylococcus (GC 4547) (Staphylococcus sp.; strain GC 4547; broth dilution, 18 hours at 35° C.): >128 mg/L
- MIC Coagulase Negative Staphylococcus (GC 4548) (Staphylococcus sp.; strain GC 4548; broth dilution, 18 hours at 35° C.): >128 mg/L
- MIC Coagulase Negative Staphylococcus (GC 4549) (Staphylococcus sp.; strain GC 4549; broth dilution, 18 hours at 35° C.): >128 mg/L
- MIC Coagulase Negative Staphylococcus (GC 4551) (Staphylococcus sp.; strain GC 4551; broth dilution, 18 hours at 35° C.): >128 mg/L
- MIC Coagulase Negative Staphylococcus (GC 6257) (Staphylococcus sp.; strain GC 6257; broth dilution, 18 hours at 35° C.): >128 mg/L
- MIC Streptococcus agalactiae (GC 4564) (Streptococcus sp.; [1]): >128 mg/L
- MIC Streptococcus pneumoniae (ATCC 6301) (Streptococcus sp.; [1]): 128 mg/L (≈ 73.3 µM)
- MIC Streptococcus pneumoniae (GC 1894) (Streptococcus sp.; [1]): 64 mg/L (≈ 36.7 µM)
- MIC Streptococcus pneumoniae (GC 4565) (Streptococcus sp.; [1]): 128 mg/L (≈ 73.3 µM)
- MIC Streptococcus pyogenes (GC 4563) (Streptococcus sp.; [1]): >128 mg/L
- MIC Streptococcus pneumoniae (ATCC 6301) (Streptococcus sp.; broth dilution, 18 hours at 35° C.; strain ATCC 6301): 128 mg/L (≈ 73.3 µM)
- MIC Streptococcus pneumoniae (GC 1894) (Streptococcus sp.; broth dilution, 18 hours at 35° C.; strain GC 1894): 64 mg/L (≈ 36.7 µM)
- MIC Streptococcus pyogenes (GC 4563) (Streptococcus sp.; broth dilution, 18 hours at 35° C.; strain GC 4563): >128 mg/L
- MIC Streptococcus agalactiae (GC 4564) (Streptococcus sp.; broth dilution, 18 hours at 35° C.; strain GC 4564): >128 mg/L
- MIC Streptococcus pneumoniae (GC 4565) (Streptococcus sp.; broth dilution, 18 hours at 35° C.; strain GC 4565): 128 mg/L (≈ 73.3 µM)
- MIC Enterococcus avium (GC 4558) (Enterococcus sp.; Enterococcus avium (GC 4558); broth dilution, 18 hours at 35° C.): 128 mg/L (≈ 73.3 µM)
- MIC Enterococcus faecalis (ATCC 29212) (Enterococcus sp.; Enterococcus faecalis (ATCC 29212); broth dilution, 18 hours at 35° C.): >128 mg/L
- MIC Enterococcus faecalis (GC 4552) (Enterococcus sp.; Enterococcus faecalis (GC 4552); broth dilution, 18 hours at 35° C.): >128 mg/L
- MIC Enterococcus faecalis (GC 4553) (Enterococcus sp.; Enterococcus faecalis (GC 4553); broth dilution, 18 hours at 35° C.): 128 mg/L (≈ 73.3 µM)
- MIC Enterococcus faecalis (GC 4554) (Enterococcus sp.; Enterococcus faecalis (GC 4554); broth dilution, 18 hours at 35° C.): >128 mg/L
- MIC Enterococcus faecalis (GC 6189) (Enterococcus sp.; Enterococcus faecalis (GC 6189); broth dilution, 18 hours at 35° C.): >128 mg/L
- MIC Enterococcus faecium (GC 2243) (Enterococcus sp.; Enterococcus faecium (GC 2243); broth dilution, 18 hours at 35° C.): >128 mg/L
- MIC Enterococcus faecium (GC 4556) (Enterococcus sp.; Enterococcus faecium (GC 4556); broth dilution, 18 hours at 35° C.): >128 mg/L
- MIC Enterococcus faecium (GC 4557) (Enterococcus sp.; Enterococcus faecium (GC 4557); broth dilution, 18 hours at 35° C.): 64 mg/L (≈ 36.7 µM)
- MIC Enterococcus avium (GC 4558) (Enterococcus sp.; [1]): 128 mg/L (≈ 73.3 µM)
- MIC Enterococcus faecalis (ATCC 29212) (Enterococcus sp.; [1]): >128 mg/L
- MIC Enterococcus faecalis (GC 2242) (Enterococcus sp.; [1]): >128 mg/L
- MIC Enterococcus faecalis (GC 2691) (Enterococcus sp.; [1]): >128 mg/L
- MIC Enterococcus faecalis (GC 3059) (Enterococcus sp.; [1]): >128 mg/L
- MIC Enterococcus faecalis (GC 4552) (Enterococcus sp.; [1]): >128 mg/L
- MIC Enterococcus faecalis (GC 4553) (Enterococcus sp.; [1]): 128 mg/L (≈ 73.3 µM)
- MIC Enterococcus faecalis (GC 4554) (Enterococcus sp.; [1]): >128 mg/L
- MIC Enterococcus faecalis (GC 6189) (Enterococcus sp.; [1]): >128 mg/L
- MIC Enterococcus faecium (GC 2243) (Enterococcus sp.; [1]): >128 mg/L
- MIC Enterococcus faecium (GC 4556) (Enterococcus sp.; [1]): >128 mg/L
- MIC Enterococcus faecium (GC 4557) (Enterococcus sp.; [1]): 64 mg/L (≈ 36.7 µM)
- MIC Enterococcus faecalis (GC 2242) (Enterococcus sp.; broth dilution, 18 hours at 35° C.; strain GC 2242): >128 mg/L
- MIC Enterococcus faecalis (GC 2691) (Enterococcus sp.; broth dilution, 18 hours at 35° C.; strain GC 2691): >128 mg/L
- MIC Enterococcus faecalis (GC 3059) (Enterococcus sp.; broth dilution, 18 hours at 35° C.; strain GC 3059): >128 mg/L
Compound: CC(c1ccccc1)C1NC(=O)CNC(=O)C(CO)NC(=O)C(C(O)C2CN(Cc3ccccc3)C(=NCc3ccccc3)N2C2OC(CO)C(O)C(O)C2O)NC(=O)C(C(O)C2CN(Cc3ccccc3)C(=NCc3ccccc3)N2Cc2ccccc2)NC(=O)C(Cc2ccc(OC3OC(CO)C(OC4OC(CO)C(O)C(O)C4O)C(O)C3O)cc2)NC1=O (stereo not drawn) [Example 62, Cyclo[glycyl-β-methylphenylalanyl-O-(4-O-hexopyranosylhexopyranosyl)tyrosyl-3-[1,3-dibenzyl-2-(benzylimino)imidazolidin-4-yl]seryl-3-[1-benzyl-2-(benzylimino)-3-hexopyranosylimidazolidin-4-yl]serylseryl]]
- MIC Staphylococcus haemolyticus (GC 4546) (Staphylococcus sp.; strain GC 4546; broth dilution, 18 hours at 35° C.): >128 mg/L

- MIC Escherichia coli (ATCC 25922) (Escherichia coli; strain ATCC 25922, broth dilution): >128 mg/L
- MIC Escherichia coli (GC 4559) (Escherichia coli; strain GC 4559, broth dilution): >128 mg/L
- MIC Escherichia coli (GC 4560) (Escherichia coli; strain GC 4560, broth dilution): >128 mg/L
- MIC Staphylococcus aureus (ATCC 29213) (Staphylococcus sp.; broth dilution, 18 hours at 35° C.; strain ATCC 29213): >128 mg/L
- MIC Staphylococcus aureus (GC 1131) (Staphylococcus sp.; broth dilution, 18 hours at 35° C.; strain GC 1131): >128 mg/L
- MIC Staphylococcus aureus (GC 4541) (Staphylococcus sp.; broth dilution, 18 hours at 35° C.; strain GC 4541): >128 mg/L
- MIC Staphylococcus aureus (GC 4542) (Staphylococcus sp.; broth dilution, 18 hours at 35° C.; strain GC 4542): >128 mg/L
- MIC Staphylococcus aureus-SMITH (GC 4543) (Staphylococcus sp.; broth dilution, 18 hours at 35° C.; strain GC 4543): >128 mg/L
- MIC Staphylococcus aureus (GC 4544) (Staphylococcus sp.; broth dilution, 18 hours at 35° C.; strain GC 4544): >128 mg/L
- MIC Staphylococcus aureus (GC 4545) (Staphylococcus sp.; broth dilution, 18 hours at 35° C.; strain GC 4545): >128 mg/L
- MIC Coagulase Negative Staphylococcus (GC 4547) (Staphylococcus sp.; broth dilution, 18 hours at 35° C.; strain GC 4547): >128 mg/L
- MIC Coagulase Negative Staphylococcus (GC 4548) (Staphylococcus sp.; broth dilution, 18 hours at 35° C.; strain GC 4548): >128 mg/L
- MIC Coagulase Negative Staphylococcus (GC 4549) (Staphylococcus sp.; broth dilution, 18 hours at 35° C.; strain GC 4549): >128 mg/L
- MIC Coagulase Negative Staphylococcus (GC 4551) (Staphylococcus sp.; broth dilution, 18 hours at 35° C.; strain GC 4551): >128 mg/L
- MIC Coagulase Negative Staphylococcus (ID-3941) (Staphylococcus sp.; broth dilution, 18 hours at 35° C.; strain ID-3941): >128 mg/L
- MIC Streptococcus agalactiae (GC 4564) (Streptococcus sp.; strain GC 4564; broth dilution, 18 hours at 35° C.): >128 mg/L
- MIC Streptococcus pneumoniae (GC 4565) (Streptococcus sp.; strain GC 4565; broth dilution, 18 hours at 35° C.): >128 mg/L
- MIC Streptococcus pyogenes (ID-3187) (Streptococcus sp.; strain ID-3187; broth dilution, 18 hours at 35° C.): >128 mg/L
- MIC Enterococcus faecalis (ATCC 29212) (Enterococcus sp.; strain ATCC 29212; broth dilution, 18 hours at 35° C.): >128 mg/L
- MIC Enterococcus faecalis (GC 2242) (Enterococcus sp.; strain GC 2242; broth dilution, 18 hours at 35° C.): >128 mg/L
- MIC Enterococcus faecium (GC 2243) (Enterococcus sp.; strain GC 2243; broth dilution, 18 hours at 35° C.): >128 mg/L
- MIC Enterococcus faecalis (GC 4552) (Enterococcus sp.; strain GC 4552; broth dilution, 18 hours at 35° C.): >128 mg/L
- MIC Enterococcus faecalis (GC 4553) (Enterococcus sp.; strain GC 4553; broth dilution, 18 hours at 35° C.): >128 mg/L
- MIC Enterococcus faecalis (GC 4554) (Enterococcus sp.; strain GC 4554; broth dilution, 18 hours at 35° C.): >128 mg/L
- MIC Enterococcus faecium (GC 4556) (Enterococcus sp.; strain GC 4556; broth dilution, 18 hours at 35° C.): >128 mg/L
- MIC Enterococcus faecium (GC 4557) (Enterococcus sp.; strain GC 4557; broth dilution, 18 hours at 35° C.): >128 mg/L
- MIC Enterococcus avium (GC 4558) (Enterococcus sp.; strain GC 4558; broth dilution, 18 hours at 35° C.): >128 mg/L
Compound: CC(c1ccccc1)C1NC(=O)CNC(=O)C(CO)NC(=O)C(C(O)C2CNC(=N)N2C2OC(CO)C(O)C(O)C2O)NC(=O)C(C(O)C2CNC(=N)N2)NC(=O)C(Cc2ccc(O)c([N+](=O)[O-])c2)NC1=O (stereo not drawn) [Example 8, Cyclo[glycyl-β-methylphenylalanyl-3-nitrotyrosyl-3-(2-iminoimidazolidin-4-yl)seryl-3-(3-hexopyranosyl-2-iminoimidazolidin-4-yl)serylseryl]] (cyclo(G[ξPhe(βξ-Me)][Tyr(3-NO2)][ξEnduracididine(βξ-OH,4'ξ)][X1]S); configuration not given here)
- MIC Staphylococcus haemolyticus (GC 4546) (Staphylococcus sp.; broth dilution, 18 hours at 35° C.; strain GC 4546): >128 mg/L

From patent US6914045B2, “Glycopeptide antibiotics” (Wyeth Holdings Corporation, priority 2001, dated 2005)
